Test results reported in patent US20080064643A1, “Myd88 Homodimerization Inhibitors” (priority 2004, published 2008).
Starred links: 1 amine or outer side, 2 acyl side, 3 side chain; linkers in the order of their positions; H or OH if unused. Non-standard residues stand in square brackets, D forms with d. Residues, ends and D or L forms follow the SMILES beside them. *: point of attachment. AzaVal = azavaline, CC(C)N(N[*:1])C(=O)[*:2]; X1 = NC(=O)CN1CC[C@@]2(CCCN2*)C1=O; azaLeu = CC(C)CN(N[*:1])C(=O)[*:2]

Columns and labels:
NF-kB [1] = test: NF-kB inhibition assay in HeLa cells stimulated with IL1α (Trans AM ELISA); type: cell-based, Human; details: for inhibition at 100 µM: Homo sapiens, HeLa, read-out: % NF-κB INHIBITION; for % NF-κB INHIBITION: HeLa cells, compound 100 μM for 6 hours, then 5 ng/ml IL1α for 30 minutes
Description: The activation of NF-kB is an event that takes place downstream of the homodimerisation of MyD88 and its binding to the intracytoplasmic portions of number of receptor complexes. The ability of the compounds which are the subject of the present invention to inhibit the activation of NF-kB downstream of the amplification cascade of the signal triggered by IL1α was therefore evaluated.
All the molecules were assayed beforehand with the MTT cell viability test, verifying that the dose of compound used in the NF-kB inhibition assay was lower than the toxic dose.
HeLa* cells were cultured in EMEM (EBSS) medium supplemented with 2 mM glutamine+1% non-essential amino acids+7.5% FBS (Foetal Bovine Serum)+10 ml/l of a solution of penicillin-streptomycin (10,000 units/ml penicillin and 10 mg/ml streptomycin).
(All cell media and the various components were purchased from Sigma-Aldrich. *HeLa cell line Human Negroid cervix epithelioid carcinoma Human from SIGMA ALDRICH ECACC Ref No: 93021013. IL1α*=SIGMA I2778 Interleukin-1-alpha IL1a Human, recombinant expressed in E. coli).
The cells were used after a number of cell passages ranging from 14 to 35.
Cells are seeded in 6-well plates at a density of 300,000 cells/well in complete medium and incubated overnight at 37° C., 5% CO2.
After approximately 18 hours, the complete medium is eliminated, cells are washed twice with PBS 1× and 1 ml of FBS-free medium is added to each well.
The molecules to be tested are subsequently added to the medium at a concentration of 100 μM. Cells are then incubated for 6 hours at 37° C., 5% CO2.
All the molecules assayed were dissolved in DMSO.
An equivalent volume of DMSO is added to the negative controls, i.e. cells not treated with the molecules.
At the end of the treatment with the molecules, the cells are stimulated with 5 ng/ml of IL1α* for 30 minutes and incubated at 37° C., 5% CO2.
An equivalent volume of PBS/BSA 0.4% (solution used to dissolve IL1α) is added to the negative controls, i.e. non-stimulated cells.
After stimulation with IL1α the cells are washed twice with PBS 1× and collected by cell scraping.
The cells are then centrifuged at 800 rpm, 4° C., 10 min. The supernatants are eliminated. The pellets are re-suspended in lysis buffer**, incubated for 10 minutes at 4° C. and centrifuged at maximum speed at 4° C. The pellets are eliminated and the supernatants frozen at −80° C.
The total protein content is subsequently measured by Bradford Assay using, as the standard, BSA at known concentration, and as used in the ELISA assay as described here below.
Activation/inhibition of NF-kB is evaluated using the Trans AM# (Active Motif) kit.
Il Trans AM kit permits detection of the activation of NF-kB induced by IL1α, through a calorimetric reaction that is obtained at the end of a routine ELISA assay.
The kit provides 96-well plates derivatised with an oligonucleotide that contains the consensus site of NF-kB (5′-GGGACTTT-CC-3′). This oligonucleotide specifically binds only the active form of NF-kB which is released after stimulation with IL1α. The first antibody supplied for detecting NF-kB recognises the p65 epitope which is accessible only when the transcriptional factor is active and binds its target DBNA sequence.
The secondary antibody supplied is conjugated to horse radish peroxidase which, with the addition of a chromogenic substrate, makes it possible to obtain a calorimetric reaction that can be evaluated spectrophotometrically at the wavelength of 450 nm.
The samples are assayed in duplicate and 10 μg of each extract are loaded into each well.
At the end of the assay, the % inhibition is calculated by processing the values obtained in the spectrophotometric readings as follows:
IL*-C*/IL-C=% activation of NF-kB.
IL*=A450 of cells stimulated and treated with the study molecules.
C*=A450 of cells not stimulated and treated with the study molecules.
IL=A450 of cells stimulated with IL1α and not treated with the molecules.
C=A450 of cells not stimulated and not treated. […]

[2] = system: IL-1-responsive human IL-8 promoter gene region; test: reporter gene assay (RGA) of luciferase activity in CaCo2 cells stimulated with IL-1; type: cell-based; details: substance 100 μM, IL-1 500 pg/mL
Source text: It is based on transient co-transfection of CaCo2 human intestinal epithelial cells with a reporter gene plasmid whose luciferase reporter gene expression is under control of the IL-1-responsive human IL-8 promoter gene region. The second plasmid in co-transfection is a vector coding for a control Renilla luciferase reporter gene, whose constitutive expression is used to estimate unspecific cellular toxicity of tested compounds. The read-out of the assay has been defined as the Relative Response Ratio (RRR) for the firefly and the Renilla luciferase, as follows: [formula] where the experimental sample is the value in cont per second (cps) of the experimental reporter luminescence, as defined for any unknown sample. The positive control is the value in cps of the reporter luminescence, as defined for the sample which identifies the maximal induction by IL-1 in the absence of reference inhibitor compound. The negative control is the value in cps of the reporter luminescence, as defined for the sample which identifies the absence of induction by IL-1. For the non-inducible Renilla luciferase, the RRR has been defined as follows: [formula]
The RGA is the read-out of the above experiments, and it was run as follows:
Plate 6×10^6 adherent CaCo2 cells on 10 cm plates. After 18-24 hours culture medium is changed, using 9 mL of D-MEM+glutamine 580 mg/L, without FBS and antibiotics. For each plate, 26 μg of IL-1-responsive reporter vector DNA (pGL2-NA-INT) and 4 μg of control reporter vector DNA are then dissolved in 500 μL Optimem (Invitrogen). Lipofectamine 2000 Reagent (Invitrogen) 30 μL are then added to 500 μL Optimem; this latter reaction mix is incubated for 5 min at room temperature. The DNA mix is then added drop by drop to the Lipofectamine 2000 mix. The resulting DNA/Lipofectamine mix is incubated for 20 min at room temperature and it is added drop by drop over the culture plate, by gently rocking the plate itself. Culture plates are then incubated for about 6 hours at 37° C. and 5% CO2. Cells are then trypsinized and transferred in 96-well plates, at 5×10^4 cells/well in 100 μL of culture medium (D-MEM with FBS 1%,+glutamine 580 mg/L), as required by the experimental design. Afterwards, cells were incubated for 16-18 hours at 37° C. and 5% CO2 and treated as follows: • Take out culture medium from each well. • Add 60 μL of fresh culture medium to control cell wells. • Add 40 μL of fresh culture medium to IL-1-treated wells. • Add 40 μL of fresh culture medium and 20 μL of substance at a concentration of 100 μM and 0.4% DMSO to inhibitor substance wells. • Add 20 μL fresh culture medium supplemented with 0.4% DMSO in IL-1-treated wells and in control cell wells. • Incubate at 37° C. and 5% CO2 for 4 hours. • After 2 hours, stimulate with 20 μL of IL-1 (500 pg/mL) for two additional hours at 37° C. and 5% CO2. • Appropriate amount of luciferase standard protein is included in additional assay wells. • Add for each well 80 μL of firefly luciferase substrate (Dual-Glo Luciferase Assay System reagent). • Incubate at room temperature for 10 min. • Read the firefly luciferase output on the Veritas lumenometer (Turner BioSystems). • Immediately add to each well 80 μL of the Renilla luciferase substrate (Dual-Glo Luciferase Assay System reagent). • Incubate at room temperature for 10 min. • Read the Renilla luciferase output on the Veritas lumenometer (Turner BioSystems).
Compounds considered positive in the RGA assay were those that gave a percentage inhibition ≧20%.

NF-kB [3] = test: NF-kB activation inhibition, preliminary studies on natural peptides (Table 1); type: cell-based; details: conditions not stated
Source text: (§1) Preliminary studies on the inhibition of the homodimerisation of MyD88 have been conducted by the present inventors using a co-immunoprecipiation assay on a series of natural peptides (synthesised as acetylamide at the N terminal and as primary amide at the carboxyl terminal) comprising the consensus sequence of the BB loop. […] The protein myc-MyD88 is expressed temporarily in HEK293 cells and isolated from cell extracts by immunoprecipitation with the anti-myc antibody. The immunoprecipitated protein is incubated with purified protein GST-MyD88TIR for 60 min at 4° C. in the presence or absence of the synthetic peptide (final concentration 200 μM). After suitable washings, the proteins absorbed to the resin used for the immunoprecipitation are solubilised with SDS and analysed by Western blot for the presence of myc-MyD88 and GST-MyD88TIR. Percentage inhibition of NF-kB activation is also given for these two peptides

MyD88 homodimer = target: T1, MyD88 homodimer (Homo sapiens, UniProt Q99836); test: co-immunoprecipitation assay of MyD88 homodimerisation (myc-MyD88 / GST-MyD88TIR, Western blot); type: binding; details: residual interaction in the MyD88 homodimer as percentage of the untreated protein; peptide 200 μM, 60 min at 4° C.
T1 construct: incubated with purified protein GST-MyD88TIR; made in house; host or cells: HEK293 (myc-MyD88, transient expression)
Source text: as §1

T1 sequence (Q99836 whole entry): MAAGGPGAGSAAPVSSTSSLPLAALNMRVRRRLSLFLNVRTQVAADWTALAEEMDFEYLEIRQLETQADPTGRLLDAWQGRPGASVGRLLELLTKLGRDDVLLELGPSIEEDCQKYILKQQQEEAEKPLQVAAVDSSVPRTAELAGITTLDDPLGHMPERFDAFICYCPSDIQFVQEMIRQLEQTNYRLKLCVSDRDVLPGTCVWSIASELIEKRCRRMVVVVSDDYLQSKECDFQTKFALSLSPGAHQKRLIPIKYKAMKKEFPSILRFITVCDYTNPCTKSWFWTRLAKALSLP

Ap-PTDLVRG-NH2 [ST2403, reference compound]
inhibition of NF-κB activation (NF-kB [1]; HeLa cells stimulated with IL-1α): inactive

Ac-thr-Azagly-pro-leu-val-asp-arg-NH2 [ST2930]
% INHIBITION [2]: 24%

CC(=O)NCC(=O)N1CCC[C@H]1C(=O)Nc1cccc(C(=O)N[C@@H](CCCNC(=N)N)C(N)=O)c1C [ST2864, Ac-Gly-Pro-SP30-Arg-NH2]
inhibition at 100 µM (NF-kB [1]): 16%

Ac-Azagly-Azagly-pro-leu-val-asp-arg-NH2 [ST3032]
% INHIBITION [2]: 21%

CC(C)[C@H](NC(=O)[C@H](CC(=O)O)NC(=O)c1cccnc1)C(=O)N[C@H](C(=O)N1CCC[C@]12CCN(CC(N)=O)C2=O)C(C)C [ST2794, PAM9-Asp-Val-Val-Beta2-NH2]
% NF-κB INHIBITION (NF-kB [1]): 25%

Ac-Arg-Asp-Val-AzaVal-Pro-Gly-NH2 [ST2920]
% INHIBITION [2]: 25%

Ac-RDVVPGG-NH2 [ST2350]
% NF-kB inhibition (NF-kB [3]): 20%
% residual interaction (MyD88 homodimer): 18%

Ac-Arg-Asp-Azagly-Val-Pro-Gly-NH2 [ST2927]
% INHIBITION [2]: 22%

COc1ccc(C(=O)N2CCC[C@]23CCN(CC(=O)N[C@H](C(N)=O)[C@@H](C)O)C3=O)cc1NC(=O)c1cccnc1 [ST2792, PAM9-SP02-Beta2-Thr-NH2]
inhibition at 100 µM (NF-kB [1]): 22%

CC(=O)N[C@H](CCCNC(=N)N)C(=O)N[C@H](CC(=O)O)C(=O)N[C@@H](C(=O)N[C@H](CC(C)C)C(=O)N1CCC[C@@]12CCN(CC(N)=O)C2=O)C(C)C [ST2799, Ac-arg-asp-val-leu-Beta1-NH2] (Ac-[dR][dD][dV][dL]-X1)
% NF-κB INHIBITION (NF-kB [1]): 23%

Ac-thr-gly-pro-leu-val-asp-arg-NH2 [ST2565]
% NF-κB INHIBITION (NF-kB [1]): 30%

Ac-Arg-Asp-AzaLeu-Val-Pro-Gly-NH2 (Ac-RD[azaLeu]VPG-NH2; SMILES CC(=O)N[C@@H](CCCNC(=N)N)C(=O)N[C@@H](CC(=O)O)C(=O)NN(CC(C)C)C(=O)N[C@H](C(=O)N1CCC[C@H]1C(=O)NCC(N)=O)C(C)C) [ST2928]
% INHIBITION [2]: 29%

H-Arg-Gly-AzaVal-Val-Pro-Gly-NH2 (H-RG[AzaVal]VPG-NH2; SMILES CC(C)[C@H](NC(=O)N(NC(=O)CNC(=O)[C@@H](N)CCCNC(=N)N)C(C)C)C(=O)N1CCC[C@H]1C(=O)NCC(N)=O) [ST2926]
% INHIBITION [2]: 20%

Ac-RDVLPGT-NH2 [ST2348]
% NF-kB inhibition (NF-kB [3]): 37%
% residual interaction (MyD88 homodimer): 29%
